Results reported in patent US8088602B1, “Manipulation of RNA stability and protein synthesis using thio-phosphate” (priority 2001, dated 2012).

Columns and labels:
[1] = test system: DNA of intestinal cells; experiment: DNase resistance of intestinal DNA from fish kept in thio-phosphate media; assay type: in vivo, Carassius auratus; conditions: 0.5 units DNase, room temp.
Method: (§1) Thio-phosphate can also be utilized by whole animals and/or complex tissues. Carassius auratus incorporates thio-phosphate into the DNA of intestinal cells; these cells are known to turnover in adults. Fish can be maintained in distilled water with NovAqua and AmQuel conditioners (U.S. Pat. No. 4,666,610). Goldfish flakes are also added for food. Normal phosphate levels in the aquarium are less than 1 mg/L (Hanna Phosphate Test Kit; Hanna Instruments). Fish are transferred to 100 ml of conditioned media with up to 250 mg/L of thio-phosphate added. […] Fresh media is prepared daily. Fish are sacrificed and DNA prepared from intestinal cells using DNAzol™ (Molecular Research Center Ohio). The DNA samples are then tested for resistance to DNase digestion. Samples are incubated in a 50 ul rxn with ˜lug of DNA and 0.5 units of DNase for 0, 5, 10, 15 min. at room temp. DNA from 250 mg/L thio-phosphate media is much more resistant than wildtype DNA or DNA from 25 mg/L thio-phosphate media. Normal DNA and 25 mg/L thio-phosphate treated DNA is digested after 5 min. while 250 mg/L thio-phosphate treated DNA persists beyond 15 min. of digestion (FIG. 3).

[2] = test system: lipase; experiment: Secreted lipase of yeast, qualitative assays; assay type: cell-based
Method: (§2) An additional assay was developed to examine the effects of thio-phosphate media on the synthesis of secreted proteins. Yeast excrete many extracellular hydrolases and the mRNAs for […] adenine, histidine, leucine, lysine, and uracil (Sp, BIO101). Various S. cerevisiase strains are able to grow in minimal media containing thio-phosphate: multiploid fleischmann's yeast strain, haploid strain ATTC# 32119, and diploid strain BJ3505 (Sigma). The haploid strain Pichia canadensis ATTC# 14355 grew better with a yeast nitrogen based media (YNB, BIO 101) as opposed to EMM. Note that the optimal level of total phosphate for yeast is ˜1 g/L which is much less than that for bacteria. Again if necessary to improve growth use nutrient broths depleted of phosphate (see below).
The mRNA is in the size range expected for a mature mRNA in which the intron sequences have been removed (FIG. 1). […] The actin probe is prepared by amplification of yeast genomic DNA (act), YFL039C, Saccharomyces Genome Database http://genome-www2.standford.edu) with the following PCR primers: • SEQ ID NO. 1: 5′ GAGGTTGCTGCTTTGGTTATTG 3′ 22 bp • SEQ ID NO. […] The probe is hybridized according to S&S protocols and detected by chemilumescence using polaroid film. […] Extracellular nucleases are detected by monitoring the degradation of genomic DNA by gel electrophoresis.

[3] = test system: Carassius auratus; experiment: Tolerance of fish kept in conditioned media with thio-phosphate; assay type: in vivo; conditions: up to 250 mg/L of thio-phosphate in conditioned media, two days
Method: as §1

[4] = test system: yeast; experiment: Soluble protein levels, biuret reagent, yeast; assay type: cell-based; conditions: low ratios of thio-phosphate to phosphate (10-30%)
Method: (§3) At higher ratios a slight decline in growth appears to account for a reduction in total protein synthesis detected. To measure protein synthesis 4 ml of cells are pelleted washed in PBS and resuspended in lysozyme solution for bacteria. Cells are then pelleted again and washed in PBS to remove lysozyme. Cells are then lysed in 400 ul of 1% SDS and 0.2 N NaOH. The extract is then diluted in water to 2 ml and assayed using the biuret reagent (Gornall et al (1949) J. Biol. Chem. 177:751). Yeast are assayed without lysozyme.

[5] = test system: Extracellular nucleases; experiment: Extracellular nuclease activity of yeast (degradation of genomic DNA by gel electrophoresis); assay type: cell-based
Method: as §2
The mRNA is in the size range expected for a mature mRNA in which the intron sequences have been removed (FIG. 1). […] The actin probe is prepared by amplification of yeast genomic DNA (act), YFL039C, Saccharomyces Genome Database http://genome-www2.standford.edu) with the following PCR primers: • SEQ ID NO. 1: 5′ GAGGTTGCTGCTTTGGTTATTG 3′ 22 bp • SEQ ID NO. 2: 5′ TTGTGGTGAACGATAGATGGAC 3′ 22 bp PCR cycling parameters using a BIO-RAD thermal cycler and Taq polymerase are as follows: initial denaturation at 94° C. for 4 min. followed by 33 cycles of denaturation at 94° C. for 30 sec, annealing at 45° C. for 30 sec, elongation at 72° C. for 3 min. followed by a final elongation at 72° C. for 7 min. […] Total RNA (˜0.5 ug) is separated on a 2% high resolving agarose gel and transferred to a neutral nylon membrane. The probe is hybridized according to S&S protocols and detected by chemilumescence using polaroid film. […] Extracellular nucleases are detected by monitoring the degradation of genomic DNA by gel electrophoresis.

[6] = test system: beta-galactosidase; experiment: Recombinant beta-galactosidase colormetric assay (X-gal) in bacterial cells; assay type: cell-based; conditions: for effect on beta-galactosidase enzyme activity: 2% lactose minimal media
Method: A recombinant vector containing the beta-galactosidase gene (Promega's TA vector expressed from an SP6 promoter) can also be examined. Enzyme activity is detected via a colormetric assay. Cells are grown in minimal media made with 2% lactose rather than glucose for optimal induction of beta-galactosidase. After several (˜4-5) hrs bacterial cells are removed to assay for enzyme activity. To 0.5 ml of cells add 0.5 ml of 200 mM Tris-HCL, pH 7.5 and 5 ul of 1% SDS (sodium dodecyl sulfate). Then add 10 ul of IPTG (100 mM) and 20 ul of X-gal (50 mg/ml), mix and incubate at 37° C. […] In the presence of glucose which represses the enzyme, the activity is much lower but can be enhanced 10 fold by using a 50% ratio of thio-phosphate to phosphate.

[7] = test system: yeast actin mRNA; experiment: Northern analysis of actin mRNA in yeast grown in thio-phosphate media; assay type: cell-based, S. cerevisiae; conditions: 100% thio-phosphate substituted media; ~0.5 ug total RNA
Method: To maximize mRNA levels cells are grown in minimal media substituted with 100% thio-phosphate. Bacteria and yeast grow quite well in such media. For E. coli minimal media is prepared as follows: (Na3SPO3.XH2O) 10-15 g/L and KCL (1.5 g/L) (NH4)2SO4, 1 g/L; sodium citrate 2H2O, 0.5 g/L; Adjust pH to 7.4 and sterile filter. Then add the following: MgSO4.7H2O, 0.2 g/L (sterilized separately as a conc. solution); (thiamine HCL, 5 ug/L; glucose, 4 g/L sterilized separately by filtration). Glucose can also be sterilized by autoclaving separately. FeCl2 (500 ug/L) can also be added as needed. Thio-phosphate contains variable amounts of water (10-15 per molecule) not included in molecular weight calculations. It is almost 50% water by weight. Note pH control is important in maximizing thio-phosphate stability. […] When adapting to other bacteria determine the sensitivity of the organism to thio-phosphate levels. Optimize for KCL as this often is provided as a salt of normal phosphate. […]
The mRNA is in the size range expected for a mature mRNA in which the intron sequences have been removed (FIG. 1). […] The probe is hybridized according to S&S protocols and detected by chemilumescence using polaroid film. […] Extracellular nucleases are detected by monitoring the degradation of genomic DNA by gel electrophoresis.

[8] = test system: YEpFLAG-1-BAP (bacterial alkaline phosphatase) expression in yeast cells (BJ3505 strain); experiment: Recombinant FLAG-tagged secreted bacterial alkaline phosphatase synthesis in yeast (immuno test strips, dilution assays); assay type: cell-based, S. cerevisiae
Method: (§4) The stabilization of RNA by growth in thio-phosphate media can be used to enhance the protein synthesis of many proteins. The optimal level of thio-phosphate to phosphate must be determined as well absolute levels of total phosphate that are tolerable. Growth in all cases is enhanced by using enriched media prepared by depleting inherent phosphate. To deplete phosphate by precipitation, MgSO4 and ammonium hydroxide are added to the media of choice. YPD (1% Bacto-yeast extract, 2% Bacto-peptone, 2% Dextrose) phosphate depleted media is prepared by adding 10 ml of 1 M MgSO4 and 10 ml of concentrated NH4OH per liter and allowing the ppt. to form by leaving the solution at room temp. for 30 min. The media is then filtered and the pH readjusted to pH 6.5. Using this procedure, the detectable amount of ortho-phosphate remaining is less than ˜200 mg/liter. […] It is best to innoculate at high densities using, for example a 1:20 dilution. Insufficient innoculum (low density) will result in poor growth.
To test for optimal protein synthesis conditions the following system can be used: a recombinant YEp plasmid containing a secreted bacterial alkaline phosphatase gene (YEpFLAG-1-BAP, Sigma; U.S. Pat. Nos. 4,703,004, 4,782,137 EP Patent 150126, and JP Patent 1983150) marked with the FLAG™ peptide DYKDDDDK. […]

[9] = test system: S. cerevisiae; experiment: Growth in phosphate depleted YPD media with thio-phosphate/phosphate ratios; assay type: cell-based; conditions: phosphate levels ~1 g/L, full range of ratios (100% to 0%)
Method: as §4

[10] = test system: Pichia canadensis; experiment: as above; assay type: cell-based; conditions: phosphate levels ~1 g/L, full range of ratios (100% to 0%)
Method: as §4

[11] = test system: bacteria; experiment: Soluble protein levels, biuret reagent, bacteria; assay type: cell-based; conditions: low ratios of thio-phosphate to phosphate (10-30%)
Method: as §3

[12] = test system: pFLAG-ATS-BAP (bacterial alkaline phosphatase) expression in JM109; experiment: Bacterial expression of pFLAG-ATS-BAP, colormetric staining of whole cells (NBT/BCIP); assay type: cell-based, bacterial cells (JM109)
Method: Bacterial expression can be examined using the recombinant vector pFLAG-ATS-BAP (Sigma Chemical; U.S. Pat. Nos. 4,703,004, 4,782,137 EP Patent 150126, and JP Patent 1983150) marked with bacterial alkaline phosphatase and under the control of a tac/lac hybrid promoter induced by IPTG. This control plasmid is expressed in the periplasmic fraction by virtue of the N-terminal OmpA signal at high levels. Enzyme activity is easily visualized using colormetric staining of whole cells. 0.5 ml of cells are pelleted and resuspended in pH 9.5 buffer (0.1 M Tris-HCL, 0.1 M NaCL, 50 mM MgCl2) along with 10 ul of NBT (nitroblue tetrazolium, 50 mg/ml) and 5 ul of BCIP (5-bromo-4-chloro-3-indolylphosphate, 50 mg/ml). After sufficient time (there may be a slight delay in the activity of induced cells) the samples are compared and then centrifuged to compare pellets. Various ratios of modified phosphate to phosphate are examined: 0%, 10%, 15%, 20%, 25%, 30%, 40%, 50%, 60, 70%, 80%, 90% and 100%. […] To determine the optimal ratio a lower level of lactose is used in the media to prevent the formation of inclusion bodies during the analysis (M9 minimal media made with 0.1% rather than 0.5% lactose, total phosphate levels of 10 g/L). […]

[Na+].[Na+].[Na+].[O-]P([O-])([O-])=S [thio-phosphate, Na3SPO3.XH2O]
time after which DNA is digested by DNase ([1]; 25 mg/L thio-phosphate media): ≤ 5 min | time DNA persists under DNase digestion ([1]; 250 mg/L thio-phosphate media): > 15 min | increase of lipase [2]: less than two fold | adverse reactions in fish [3]: No adverse reactions | soluble protein levels [4]: not enhanced | increase of extracellular nuclease activity ([5]; 10% ratio of thio-phosphate to phosphate): two to three fold increase | effect on extracellular nuclease activity ([5]; ratios above 70%): slightly inhibitory | effect on extracellular nuclease activity ([5]; ratios beyond 30%): not stimulatory | effect on beta-galactosidase enzyme activity ([6]; higher ratios (50-70%)): recovers from inhibition | enhancement of beta-galactosidase activity ([6]; in the presence of glucose, 50% ratio of thio-phosphate to phosphate): 10 fold | effect on beta-galactosidase enzyme activity ([6]; low ratios of thio-phosphate to phosphate (5-30%)): inhibited | stabilization of actin mRNA [7]: significant stabilization | ratio of thio-phosphate to normal phosphate at which maximal synthesis occurs ([8]; weight equivalent ratio, grown overnight, following cessation of growth, ratios 100-0 tested): ~10% | increase of FLAG-BAP protein compared to normal media with an equivalent amount of phosphate ([8]; ~10% ratio, dilution assays): about ten fold | growth [9]: adequate growth | growth [10]: adequate growth | soluble protein levels [11]: not enhanced | BAP activity elevated over controls ([12]; 50% ratio, low lactose levels): several fold | optimal ratio of modified phosphate to phosphate for BAP enzyme activity ([12]; low lactose (0.1%) M9 minimal media, total phosphate 10 g/L): 50%
